≈ marks a conversion by molar mass, not a printed value. Where two headings read alike, the source gives them in different places.
How the values were obtained:
[1] = system: C. albicans YEM-15 (CDR1 and CDR2 overexpressor); assay: microbe, parasite or virus in culture; format: cell-based; settings: Candida albicans, read-out: MIC Mb alone
[2] = system: C. albicans YEM-21 (BEN deleted); assay: microbe, parasite or virus in culture; format: cell-based
[3] = system: C. glabrata YEM-19 (CgCDR overexpressor); format: cell-based
[4] = system: S. cerevisiae YEM-40 (CgCDR, MF, introduced); assay: microbe, parasite or virus in culture; format: cell-based; settings: Saccharomyces cerevisiae, read-out: MIC Mb alone
[5] = system: C. albicans YEM-10 (low level CDR1 expressor); assay: microbe, parasite or virus in culture; format: cell-based
[6] = system: C. glabrata YEM-19 (CgCDR overexpression, higher than YEM-17); assay: microbe, parasite or virus in culture; format: cell-based
[7] = system: P388 cell line (mouse leukemia), adriamycin sensitive; assay: Adriamycin cytotoxicity (MTT), P-glycoprotein assay
Method: (§1) The inhibitory effect of milbemycin β1 against the mammalian P-glycoprotein multi-drug resistant pump was determined following the procedure described by Tsuruo et al (Cancer Res., 1981. 41:1967-1972) with slight modification. The cytotoxicity of antitumor agent, adriamycin, against adriamycin sensitive P388 cell line (mouse leukemia) and its adriamycin resistant subline line (P388/ADM) was measured in the presence of various concentrations of milbemycin β1. […] The assay is performed in serum-free media containing 20 μM of 2-mercaptoethanol. Chemosensitivity to adriamycin was determined […] based on the reduction of MTT (3-[4,5-dimethylthiazol-2-yl]-2,5-diphenyltetrazolium bromide) into blue formazan.

[8] = system: P388/ADM, adriamycin resistant subline; assay: as above
Method: as §1

[9] = system: C. albicans YEM-14 (low level CDR1 expressor); assay: microbe, parasite or virus in culture; format: cell-based
[10] = system: S. cerevisiae YEM-37 (CDR2 introduced); assay: microbe, parasite or virus in culture; format: cell-based; settings: Saccharomyces cerevisiae, read-out: MIC Mb alone
[11] = system: C. albicans YEM-13 (BEN overexpressor); assay: microbe, parasite or virus in culture; format: cell-based; settings: Candida albicans, read-out: MIC Mb alone
[12] = system: C. albicans YEM-30 (wild-type, no pump deleted); assay: microbe, parasite or virus in culture; format: cell-based
[13] = system: S. cerevisiae YEM-2 (BEN introduced); assay: microbe, parasite or virus in culture; format: cell-based; settings: Saccharomyces cerevisiae, read-out: MIC Mb alone
[14] = system: C. albicans YEM-29 (BEN, FLU1 deleted); assay: microbe, parasite or virus in culture; format: cell-based
C. neoformans = assay: microbe, parasite or virus in culture; format: cell-based, Cryptococcus neoformans
[15] = system: S. cerevisiae YEM-39 overexpressing CgCDR (C. glabrata); assay: microbe, parasite or virus in culture; format: cell-based; design: MIC Reduction Factor, fluconazole: unit not given beside the values; settings: for MIC: Saccharomyces cerevisiae
[16] = system: S. cerevisiae YEM-1 overexpressing CDR1 (C. albicans); assay: microbe, parasite or virus in culture; format: cell-based; design: MIC Reduction Factor, fluconazole: unit not given beside the values; settings: for MIC: Saccharomyces cerevisiae
C. krusei YEM-71 = assay: Broth dilution checkerboard, azoles and terbinafine with milbemycin α9 (Table 8); format: cell-based; design: MIC Reduction Factor, fluconazole / MIC Reduction Factor, itraconazole / MIC Reduction Factor, ketoconazole / MIC Reduction Factor, terbinafine: unit not given beside the values; settings: for MIC: Pichia kudriavzevii
[17] = system: C. glabrata YEM-17 (CgCDR overexpressor); assay: microbe, parasite or virus in culture; format: cell-based; design: MIC Reduction Factor, fluconazole / MIC Reduction Factor, itraconazole / MIC Reduction Factor, ketoconazole / MIC Reduction Factor, terbinafine: unit not given beside the values; settings: for MIC: Nakaseomyces glabratus
[18] = system: C. glabrata clinical isolates (n = 12); assay: microbe, parasite or virus in culture; format: cell-based
C. tropicalis = assay: microbe, parasite or virus in culture; format: cell-based
[19] = Candida albicans, read-out: MIC Mb alone
[20] = read-out: Terbinafine MIC in the presence of FEPImax
[21] = YEM-39 (CgCDR), milbemycin α9 at FEPImax
[22] = YEM-39, milbemycin α9 at FEPImax
[23] = YEM-1 (CDR1), milbemycin α9 at FEPImax
[24] = YEM-1, milbemycin α9 at FEPImax
[25] = YEM-71, milbemycin α9 at FEPImax
[26] = YEM-17, milbemycin α9 at FEPImax

CO[C@H]1C[C@@]2(O)/C(CO)=C/C=C/[C@H](C)C/C(C)=C/C[C@@H]3C[C@@H](C[C@]4(CC[C@H](C)[C@@H](C)O4)O3)OC(=O)[C@@H]2C=C1C [Compound 6, Milbemycin β1]
MIC [1]: 16 µg/mL (≈ 29.4 µM)
MIC [2, 19]: 16 µg/mL (≈ 29.4 µM)
MIC of fluconazole, Flu + Mb (2.5 μg/ml) ([2]; YEM-21, BEN deleted, milbemycin β1 2.5 μg/ml): 0.03 µg/mL
Minimal concentration required to reduce the MIC of fluconazole by sixteen-fold [3]: 2.5 µg/mL
MIC [4]: 8 µg/mL (≈ 14.7 µM)
MIC [5, 19]: 16 µg/mL (≈ 29.4 µM)
MIC of fluconazole, Flu + Mb (2.5 μg/ml) ([5]; YEM-10, milbemycin β1 2.5 μg/ml): 0.125 µg/mL
MIC ([6]; Nakaseomyces glabratus, read-out: MIC of milbemycin β1 (MB) alone): > 64 µg/mL
Fluconazole MIC with 2.5 μg/ml milbemycin β1 ([6]; YEM-19): 8 µg/mL
Fluconazole MIC with 5 μg/ml milbemycin β1 ([6]; YEM-19): 2 µg/mL
Fluconazole MIC with 10 μg/ml milbemycin β1 ([6]; YEM-19): 2 µg/mL
Fluconazole MIC with […] milbemycin β1 ([6]; YEM-19): 32 µg/mL
Adriamycin TC50, P388 ([7]; inhibitor 0.06 μg/ml): 0.009 µg/mL
Adriamycin TC50, P388 ([7]; inhibitor 0.25 μg/ml): 0.009 µg/mL
Adriamycin TC50, P388 ([7]; inhibitor 0.5 μg/ml): 0.011 µg/mL
Adriamycin TC50, P388 ([7]; inhibitor 1 μg/ml): 0.009 µg/mL
Adriamycin TC50, P388 ([7]; inhibitor 2 μg/ml): 0.012 µg/mL
Adriamycin TC50, P388 ([7]; inhibitor 3.125 μg/ml): 0.011 µg/mL
Adriamycin TC50, P388 ([7]; inhibitor […]): 0.008 µg/mL
Adriamycin TC50, P388/ADM ([8]; inhibitor 0.06 μg/ml): 1.955 µg/mL
Adriamycin TC50, P388/ADM ([8]; inhibitor 0.25 μg/ml): 0.66 µg/mL
Adriamycin TC50, P388/ADM ([8]; inhibitor 0.5 μg/ml): 0.369 µg/mL
Adriamycin TC50, P388/ADM ([8]; inhibitor 1 μg/ml): 0.215 µg/mL
Adriamycin TC50, P388/ADM ([8]; inhibitor 2 μg/ml): 0.05 µg/mL
Adriamycin TC50, P388/ADM ([8]; inhibitor 3.125 μg/ml): 0.051 µg/mL
Adriamycin TC50, P388/ADM ([8]; inhibitor […]): 0.848 µg/mL
MIC [9, 19]: 16 µg/mL (≈ 29.4 µM)
MIC of fluconazole, Flu + Mb (2.5 μg/ml) ([9]; YEM-14, milbemycin β1 2.5 μg/ml): 0.125 µg/mL
MIC [10]: 8 µg/mL (≈ 14.7 µM)
MIC [11]: 32 µg/mL (≈ 58.7 µM)
MIC [12, 19]: 16 µg/mL (≈ 29.4 µM)
MIC of fluconazole, Flu + Mb (2.5 μg/ml) ([12]; YEM-30, milbemycin β1 2.5 μg/ml): 0.125 µg/mL
MIC [13]: 8 µg/mL (≈ 14.7 µM)
MIC [14, 19]: 16 µg/mL (≈ 29.4 µM)
MIC of fluconazole, Flu + Mb (2.5 μg/ml) ([14]; YEM-29, BEN, FLU1 deleted, milbemycin β1 2.5 μg/ml): 0.03 µg/mL

C/C1=C\C[C@@H]2C[C@@H](C[C@]3(CC[C@H](C)[C@@H](C)O3)O2)OC(=O)[C@@H]2C=C(COC(=O)c3ccc[nH]3)[C@@H](O)[C@H]3OC/C(=C\C=C\[C@H](C)C1)[C@]32O [Compound 11, Milbemycin α9]
Fluconazole MIC, + milbemycin α9 (C. neoformans): ≦0.25 μg/ml
MIC ([15]; read-out: Milbemycin α9 MIC): > 64 µg/mL
MIC [15, 20]: 1 µg/mL
FEPImax (minimal milbemycin α9 conc. for maximum MIC reduction), fluconazole ([15]; YEM-39 (CgCDR)): 2 µg/mL
FEPImax (minimal milbemycin α9 conc. for maximum MIC reduction), terbinafine ([15]; YEM-39 (CgCDR)): 2 µg/mL
Pump inhibition (%), fluconazole [15, 21]: 60%
Pump inhibition (%), terbinafine [15, 21]: 66%
Fluconazole MIC in the presence of FEPImax [15, 22]: 4 µg/mL
MIC Reduction Factor, fluconazole [15, 22]: 16
Inhibition of CgCDR efflux pump from C. glabrata ([15]; summary of Table 9, fluconazole and terbinafine): 60-65%
MIC ([16]; read-out: Milbemycin α9 MIC): > 64 µg/mL
MIC [16, 20]: 0.5 µg/mL
FEPImax (minimal milbemycin α9 conc. for maximum MIC reduction), fluconazole ([16]; YEM-1 (CDR1)): 2 µg/mL
FEPImax (minimal milbemycin α9 conc. for maximum MIC reduction), terbinafine ([16]; YEM-1 (CDR1)): 0.5 µg/mL
Pump inhibition (%), fluconazole [16, 23]: 100%
Pump inhibition (%), terbinafine [16, 23]: 100%
Fluconazole MIC in the presence of FEPImax [16, 24]: 0.5 µg/mL
MIC Reduction Factor, fluconazole [16, 24]: 256
MIC (C. krusei YEM-71; YEM71, read-out: Milbemycin α9 MIC): > 64 µg/mL
MIC (C. krusei YEM-71; YEM71, read-out: Terbinafine MIC in the presence of FEPImax): 2 µg/mL
FEPImax (minimal milbemycin α9 conc. for maximum MIC reduction), fluconazole (C. krusei YEM-71; YEM-71): 1 µg/mL
FEPImax (minimal milbemycin α9 conc. for maximum MIC reduction), itraconazole (C. krusei YEM-71; YEM-71): 0.25 µg/mL
FEPImax (minimal milbemycin α9 conc. for maximum MIC reduction), ketoconazole (C. krusei YEM-71; YEM-71): 2 µg/mL
FEPImax (minimal milbemycin α9 conc. for maximum MIC reduction), terbinafine (C. krusei YEM-71; YEM-71): 0.008 µg/mL
Fluconazole MIC in the presence of FEPImax (C. krusei YEM-71; [25]): 8 µg/mL
Itraconazole MIC in the presence of FEPImax (C. krusei YEM-71; [25]): 0.008 µg/mL
Ketoconazole MIC in the presence of FEPImax (C. krusei YEM-71; [25]): 0.015 µg/mL
MIC Reduction Factor, fluconazole (C. krusei YEM-71; [25]): 16
MIC Reduction Factor, itraconazole (C. krusei YEM-71; [25]): 64
MIC Reduction Factor, ketoconazole (C. krusei YEM-71; [25]): 128
MIC Reduction Factor, terbinafine (C. krusei YEM-71; [25]): 64
MIC ([17]; read-out: Milbemycin α9 MIC): > 64 µg/mL
MIC [17, 20]: 4 µg/mL
FEPImax (minimal milbemycin α9 conc. for maximum MIC reduction), fluconazole ([17]; YEM-17): 8 µg/mL
FEPImax (minimal milbemycin α9 conc. for maximum MIC reduction), itraconazole ([17]; YEM-17): 4 µg/mL
FEPImax (minimal milbemycin α9 conc. for maximum MIC reduction), ketoconazole ([17]; YEM-17): 16 µg/mL
FEPImax (minimal milbemycin α9 conc. for maximum MIC reduction), terbinafine ([17]; YEM-17): 4 µg/mL
Fluconazole MIC in the presence of FEPImax [17, 26]: 4 µg/mL
Itraconazole MIC in the presence of FEPImax [17, 26]: 0.125 µg/mL
Ketoconazole MIC in the presence of FEPImax [17, 26]: 0.06 µg/mL
MIC Reduction Factor, fluconazole [17, 26]: 32
MIC Reduction Factor, itraconazole [17, 26]: 1024
MIC Reduction Factor, ketoconazole [17, 26]: 32
MIC Reduction Factor, terbinafine [17, 26]: 32
Fluconazole MIC50, + milbemycin α9 [18]: 2 µg/mL
Fluconazole MIC Range, + milbemycin α9 [18]: <0.25 to 16 µg/mL
Reduction of fluconazole MIC90 by milbemycin α9 ([18]; C. glabrata (n=12)): 16 fold
Fluconazole MIC90, + milbemycin α9 ([18]; C. glabrata n = 12, MIC (80%) in YPD): 8 µg/mL
Fluconazole MIC, + milbemycin α9 (C. tropicalis): ≦0.25 μg/ml

From patent US6495591B1, “Fungal efflux pump inhibitors” (Essential Therapeutics, Inc., priority 1997, dated 2002)
